# According to patent US4623662A, “Antiatherosclerotic ureas and thioureas” (American Cyanamid Company, priority 1985, dated 1986):
# “And” between values parts separate entries of the source, which are not always exact repeats. Identical values can stand only once.
# Biological target: T1, fatty acyl CoA: cholesterol acyl transferase (ACAT) (Rattus norvegicus, UniProt O70536)
# T1 construct: The supernatant, containing the microsomal fraction, served as the source of the cholesterol-esterifying enzyme; from tissue; host or cells: rat adrenals, supernatant of 1,000 x g centrifugation containing the microsomal fraction
# T1 sequence (O70536 1-545): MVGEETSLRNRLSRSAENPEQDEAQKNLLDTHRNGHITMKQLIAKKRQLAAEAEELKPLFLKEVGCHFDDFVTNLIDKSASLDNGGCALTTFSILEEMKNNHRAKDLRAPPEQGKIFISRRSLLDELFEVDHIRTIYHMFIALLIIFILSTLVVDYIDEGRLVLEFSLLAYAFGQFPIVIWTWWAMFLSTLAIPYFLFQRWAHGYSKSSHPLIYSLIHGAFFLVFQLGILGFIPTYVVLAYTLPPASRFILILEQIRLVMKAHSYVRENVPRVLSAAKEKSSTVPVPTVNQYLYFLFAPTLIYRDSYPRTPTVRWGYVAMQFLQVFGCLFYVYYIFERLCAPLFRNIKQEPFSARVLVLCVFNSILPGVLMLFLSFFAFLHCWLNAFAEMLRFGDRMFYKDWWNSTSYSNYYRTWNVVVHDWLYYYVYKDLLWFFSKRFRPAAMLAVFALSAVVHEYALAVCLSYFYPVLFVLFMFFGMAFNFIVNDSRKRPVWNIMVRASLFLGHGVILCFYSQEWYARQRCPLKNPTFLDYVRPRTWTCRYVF
# Assay: Inhibition of fatty acyl CoA:cholesterol acyl transferase (ACAT), rat adrenal enzyme
# Format: biochemical
# Settings: not given
# How it was run: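 Enzyme source was the microsomal supernatant of rat adrenal homogenate (0.2M potassium phosphate, pH 7.4) with BSA, preincubated with compound (5.2 μg/ml final for single-point) for 10 min at 37° C. Then [14C]oleoyl CoA added, 10 min at 37° C. TLC-separated cholesteryl ester was counted; percent inhibition versus control, IC50 from several concentrations.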
row,Compound,inhibition at 5.2 µg/mL
1,"CCCCCCCN(Cc1ccc(CCCC)cc1)C(=O)Nc1c(Cl)cc(Cl)cc1Cl [1-(n-Heptyl)-1-(4-n-butylbenzyl)-3-(2,4,6-trichlorophenyl)urea]",90%
2,"CC(C)(C)CCN(Cc1ccc(CC(C)(C)C)cc1)C(=O)Nc1c(Cl)cc(Cl)cc1Cl [1-(3,3-Dimethylbutyl)-1-[4-(2,2-dimethylpropyl)benzyl]-3-(2,4,6-trichlorophenyl)urea]",90%
3,"Cc1cc(Cl)ccc1NC(=O)N(CCC(C)(C)C)Cc1cccs1 [3-(4-Chloro-2-methylphenyl)-1-(3,3-dimethylbutyl)-1-(2-thienylmethyl)urea]",90%
4,"CCCCOc1ccc(CN(CCC(C)(C)C)C(=O)Nc2ccc(F)cc2F)cc1 [1-(3,3-Dimethylbutyl)-1-[4-(n-butoxy)benzyl]-3-(2,4-difluorophenyl)urea]",90%
5,"CCCCc1ccc(CN(CCCCC(C)(C)C)C(=O)Nc2ccc(Cl)cc2C)cc1 [1-(5,5-Dimethylhexyl)-1-[4-(n-butyl)benzyl]-3-(4-chloro-2-methylphenyl)urea]",90%
6,"CCCCOc1ccc(CN(CCC(C)(C)C)C(=O)Nc2ccc(Cl)cc2C)cc1 [1-(3,3-Dimethylbutyl)-1-[4-(n-butoxy)benzyl]-3-(4-chloro-2-methylphenyl)urea]",90%
7,"CC(C)(C)CCN(Cc1ccc(CC(C)(C)C)cc1)C(=O)Nc1ccc(F)cc1F [1-(3,3-Dimethylbutyl)-1-[4-(2,2-dimethylpropyl)benzyl]-3-(2,4-difluorophenyl)urea]",90%
8,"CCCCc1ccc(CN(CCCCCCO)C(=O)Nc2c(Cl)cc(Cl)cc2Cl)cc1 [1-[(4-Butylphenyl)methyl]-1-(6-hydroxyhexyl)-3-(2,4,6-trichlorophenyl)urea]",90%
9,"CCCCCCCN(Cc1cccs1)C(=O)Nc1c(Cl)cc(Cl)cc1Cl [1-Heptyl-1-(2-thienylmethyl)-3-(2,4,6-trichlorophenyl)urea]",90%
10,"CCCCc1ccc(CN(CCCCCCCl)C(=O)Nc2cc(C)c(C)cc2C)cc1 [1-[(4-Butylphenyl)methyl]-1-(6-chlorohexyl)-3-(2,4,5-trimethylphenyl)urea]",90%
11,"CCCCc1ccc(CN(CCCCC[Si](C)(C)C)C(=O)Nc2ccc(F)cc2F)cc1 [1-[(4-Butylphenyl)methyl]-3-(2,4-difluorophenyl)-1-[5-(trimethylsilyl)pentyl]urea]",90%
12,CCCCCCCN(Cc1ccc(CCCC)cc1)C(=O)Nc1cccc(C(F)(F)F)c1 [1-(n-Heptyl)-1-[4-(n-butyl)benzyl]-3-(3-trifluoromethylphenyl)urea],90%

# Same assay, conditions: rat adrenal ACAT; final concentration 5.2 μg/ml
row,% Inhibition,Compound
1,70.0% and 91.0%,"O=C(Nc1ccc(F)cc1F)N(Cc1ccccc1)C(Cc1ccccc1)c1ccc(OCc2ccccc2)cc1 (stereo not shown) [1-Benzyl-1-[2-phenyl-1-(4-benzyloxyphenyl)ethyl]-3-(2,4-difluorophenyl)urea]"

# Same assay, conditions: rat adrenal ACAT; final concentration 5.2 μg/ml; read-out: % Inhibition
row,inhibition at 5.2 µg/mL,Compound
1,94.3%,CCCCc1ccc(CN(Cc2ccccc2)C(=O)Nc2ccc(Cl)cc2C)cc1 [1-Benzyl-1-(4-n-butylbenzyl)-3-(2-methyl-4-chlorophenyl)urea]

# System: cholesterol absorption
# Assay: Inhibition of cholesterol absorption in rats fed 1% cholesterol:0.5% cholic acid diet
# Format: in vivo, male Sprague-Dawley rats
# Settings: po, 336 h; rat; dose .03% of the diet, 2 weeks; read-out: LS (liver sterol), percentage of control values
# Procedure: Inhibition of cholesterol absorption was determined by feeding male Sprague-Dawley rats, weighing 150-170 g, a 1% cholesterol:0.5% cholic acid diet for 2 weeks. The diet also contained compounds being tested at a dose of 0.001, 0.003, 0.01, or 0.03% of the diet. Control rats were fed the same diet without any compound. At the end of the test, the rats were sacrificed by decapitation. Blood was collected, centrifuged at […] for 10 minutes at 4° C.; and the serum was then analyzed for cholesterol and triglycerides enzymatically by the method of Trinder, P., Analyst, 77, 321 (1952) on a Centrifichem 400 analyzer. Livers were removed, a 0.4 g sample was taken from the center of the large lobe, and the sample was subjected to saponification using 25% saturated potassium hydroxide in ethanol. The resulting neutral sterols were extracted with petroleum ether and the extract analyzed for cholesterol. The effectiveness of the compound in inhibiting cholesterol absorption was measured by the lowering of either serum cholesterol or liver cholesterol relative the values for control rats.
# Compounds which produced statistically significant inhibition of cholesterol absorption are considered to be active. Liver sterol (LS) and serum sterol (SS) values are expressed as a percentage of control values.
row,Compound,response vs control in vivo at 0.03 %
1,CCCCc1ccc(CN(Cc2ccccc2)C(=O)Nc2ccc(Cl)cc2C)cc1 [1-Benzyl-1-(4-n-butylbenzyl)-3-(2-methyl-4-chlorophenyl)urea],21%
2,"CCCCCCCN(Cc1ccc(CCCC)cc1)C(=O)Nc1c(Cl)cc(Cl)cc1Cl [1-(n-Heptyl)-1-(4-n-butylbenzyl)-3-(2,4,6-trichlorophenyl)urea]",8%
3,"CC(C)(C)CCN(Cc1ccc(CC(C)(C)C)cc1)C(=O)Nc1c(Cl)cc(Cl)cc1Cl [1-(3,3-Dimethylbutyl)-1-[4-(2,2-dimethylpropyl)benzyl]-3-(2,4,6-trichlorophenyl)urea]",15%
4,"Cc1cc(Cl)ccc1NC(=O)N(CCC(C)(C)C)Cc1cccs1 [3-(4-Chloro-2-methylphenyl)-1-(3,3-dimethylbutyl)-1-(2-thienylmethyl)urea]",64%
5,"CCCCOc1ccc(CN(CCC(C)(C)C)C(=O)Nc2ccc(F)cc2F)cc1 [1-(3,3-Dimethylbutyl)-1-[4-(n-butoxy)benzyl]-3-(2,4-difluorophenyl)urea]",32%
6,"CCCCc1ccc(CN(CCCCC(C)(C)C)C(=O)Nc2ccc(Cl)cc2C)cc1 [1-(5,5-Dimethylhexyl)-1-[4-(n-butyl)benzyl]-3-(4-chloro-2-methylphenyl)urea]",34%
7,"CCCCOc1ccc(CN(CCC(C)(C)C)C(=O)Nc2ccc(Cl)cc2C)cc1 [1-(3,3-Dimethylbutyl)-1-[4-(n-butoxy)benzyl]-3-(4-chloro-2-methylphenyl)urea]",22%
8,"CC(C)(C)CCN(Cc1ccc(CC(C)(C)C)cc1)C(=O)Nc1ccc(F)cc1F [1-(3,3-Dimethylbutyl)-1-[4-(2,2-dimethylpropyl)benzyl]-3-(2,4-difluorophenyl)urea]",19%
9,"CCCCc1ccc(CN(CCCCCCO)C(=O)Nc2c(Cl)cc(Cl)cc2Cl)cc1 [1-[(4-Butylphenyl)methyl]-1-(6-hydroxyhexyl)-3-(2,4,6-trichlorophenyl)urea]",32%
10,"CCCCCCCN(Cc1cccs1)C(=O)Nc1c(Cl)cc(Cl)cc1Cl [1-Heptyl-1-(2-thienylmethyl)-3-(2,4,6-trichlorophenyl)urea]",28%
11,"CCCCc1ccc(CN(CCCCCCCl)C(=O)Nc2cc(C)c(C)cc2C)cc1 [1-[(4-Butylphenyl)methyl]-1-(6-chlorohexyl)-3-(2,4,5-trimethylphenyl)urea]",15%
12,"CCCCc1ccc(CN(CCCCC[Si](C)(C)C)C(=O)Nc2ccc(F)cc2F)cc1 [1-[(4-Butylphenyl)methyl]-3-(2,4-difluorophenyl)-1-[5-(trimethylsilyl)pentyl]urea]",57%
13,"O=C(Nc1ccc(F)cc1F)N(Cc1ccccc1)C(Cc1ccccc1)c1ccc(OCc2ccccc2)cc1 (stereo not shown) [1-Benzyl-1-[2-phenyl-1-(4-benzyloxyphenyl)ethyl]-3-(2,4-difluorophenyl)urea]",27%

# Same assay, conditions: po, 336 h; rat; dose .03% of the diet, 2 weeks; read-out: SS (serum sterol), percentage of control values
row,Compound,response vs control in vivo at 0.03 %
1,CCCCc1ccc(CN(Cc2ccccc2)C(=O)Nc2ccc(Cl)cc2C)cc1 [1-Benzyl-1-(4-n-butylbenzyl)-3-(2-methyl-4-chlorophenyl)urea],70%
2,"CCCCCCCN(Cc1ccc(CCCC)cc1)C(=O)Nc1c(Cl)cc(Cl)cc1Cl [1-(n-Heptyl)-1-(4-n-butylbenzyl)-3-(2,4,6-trichlorophenyl)urea]",28%
3,"CC(C)(C)CCN(Cc1ccc(CC(C)(C)C)cc1)C(=O)Nc1c(Cl)cc(Cl)cc1Cl [1-(3,3-Dimethylbutyl)-1-[4-(2,2-dimethylpropyl)benzyl]-3-(2,4,6-trichlorophenyl)urea]",32%
4,"Cc1cc(Cl)ccc1NC(=O)N(CCC(C)(C)C)Cc1cccs1 [3-(4-Chloro-2-methylphenyl)-1-(3,3-dimethylbutyl)-1-(2-thienylmethyl)urea]",62%
5,"CCCCOc1ccc(CN(CCC(C)(C)C)C(=O)Nc2ccc(F)cc2F)cc1 [1-(3,3-Dimethylbutyl)-1-[4-(n-butoxy)benzyl]-3-(2,4-difluorophenyl)urea]",42%
6,"CCCCc1ccc(CN(CCCCC(C)(C)C)C(=O)Nc2ccc(Cl)cc2C)cc1 [1-(5,5-Dimethylhexyl)-1-[4-(n-butyl)benzyl]-3-(4-chloro-2-methylphenyl)urea]",42%
7,"CCCCOc1ccc(CN(CCC(C)(C)C)C(=O)Nc2ccc(Cl)cc2C)cc1 [1-(3,3-Dimethylbutyl)-1-[4-(n-butoxy)benzyl]-3-(4-chloro-2-methylphenyl)urea]",61%
8,"CC(C)(C)CCN(Cc1ccc(CC(C)(C)C)cc1)C(=O)Nc1ccc(F)cc1F [1-(3,3-Dimethylbutyl)-1-[4-(2,2-dimethylpropyl)benzyl]-3-(2,4-difluorophenyl)urea]",35%
9,"CCCCc1ccc(CN(CCCCCCO)C(=O)Nc2c(Cl)cc(Cl)cc2Cl)cc1 [1-[(4-Butylphenyl)methyl]-1-(6-hydroxyhexyl)-3-(2,4,6-trichlorophenyl)urea]",35%
10,"CCCCCCCN(Cc1cccs1)C(=O)Nc1c(Cl)cc(Cl)cc1Cl [1-Heptyl-1-(2-thienylmethyl)-3-(2,4,6-trichlorophenyl)urea]",56%
11,"CCCCc1ccc(CN(CCCCCCCl)C(=O)Nc2cc(C)c(C)cc2C)cc1 [1-[(4-Butylphenyl)methyl]-1-(6-chlorohexyl)-3-(2,4,5-trimethylphenyl)urea]",40%
12,"CCCCc1ccc(CN(CCCCC[Si](C)(C)C)C(=O)Nc2ccc(F)cc2F)cc1 [1-[(4-Butylphenyl)methyl]-3-(2,4-difluorophenyl)-1-[5-(trimethylsilyl)pentyl]urea]",62%
13,"O=C(Nc1ccc(F)cc1F)N(Cc1ccccc1)C(Cc1ccccc1)c1ccc(OCc2ccccc2)cc1 (stereo not shown) [1-Benzyl-1-[2-phenyl-1-(4-benzyloxyphenyl)ethyl]-3-(2,4-difluorophenyl)urea]",48%
